What was measured:
[1] = biological target: Sodium/potassium-transporting ATPase (Sus scrofa) (UniProt P05027+P05024+D2WKD8+D2WKD7+F1ST41); assay: ATPase (Na+/K+) Eurofins-Cerep enzyme and uptake assay; assay type: protein-complex assay; conditions: Compound concentration 10.0 uM
[2] = biological target: Calcitonin-gene-related peptide receptor, CALCRL/RAMP1 (Homo sapiens) (UniProt O60894+Q16602); assay: CGRP (h) Eurofins-Cerep binding assay; assay type: protein-complex assay; design: ligand concentration 0.03 nM; conditions: filed as agonist, Compound concentration 10.0 uM
[3] = biological target: Tumor necrosis factor (Homo sapiens) (UniProt P01375); assay: TNF-alpha (h) Eurofins-Cerep binding assay; design: ligand concentration 0.1 nM; conditions: filed as agonist, Compound concentration 10.0 uM
[4] = biological target: Motilin receptor (Homo sapiens) (UniProt O43193); assay: motilin (h Eurofins-Cerep binding assay; design: ligand concentration 0.05 nM; conditions: filed as agonist, Compound concentration 10.0 uM
Chain of Motilin receptor (Homo sapiens) (O43193 whole entry): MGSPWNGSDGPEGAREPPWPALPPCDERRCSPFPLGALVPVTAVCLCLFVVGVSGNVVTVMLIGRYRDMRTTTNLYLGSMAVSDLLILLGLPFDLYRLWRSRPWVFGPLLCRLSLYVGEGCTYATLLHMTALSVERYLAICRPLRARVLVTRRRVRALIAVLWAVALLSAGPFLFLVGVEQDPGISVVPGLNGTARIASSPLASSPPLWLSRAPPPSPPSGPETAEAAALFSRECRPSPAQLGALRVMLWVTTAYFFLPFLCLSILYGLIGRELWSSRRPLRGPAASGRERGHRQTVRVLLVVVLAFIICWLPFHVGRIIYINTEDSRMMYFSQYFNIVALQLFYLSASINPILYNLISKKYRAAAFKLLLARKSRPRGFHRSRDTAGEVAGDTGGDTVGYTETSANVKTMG

[5] = biological target: Mu-type opioid receptor (Homo sapiens) (UniProt P35372); assay: mu (MOP) (h) Eurofins-Cerep binding assay; design: ligand concentration 0.5 nM; conditions: filed as agonist, Compound concentration 10.0 uM
Chain of Mu-type opioid receptor (Homo sapiens) (P35372 whole entry): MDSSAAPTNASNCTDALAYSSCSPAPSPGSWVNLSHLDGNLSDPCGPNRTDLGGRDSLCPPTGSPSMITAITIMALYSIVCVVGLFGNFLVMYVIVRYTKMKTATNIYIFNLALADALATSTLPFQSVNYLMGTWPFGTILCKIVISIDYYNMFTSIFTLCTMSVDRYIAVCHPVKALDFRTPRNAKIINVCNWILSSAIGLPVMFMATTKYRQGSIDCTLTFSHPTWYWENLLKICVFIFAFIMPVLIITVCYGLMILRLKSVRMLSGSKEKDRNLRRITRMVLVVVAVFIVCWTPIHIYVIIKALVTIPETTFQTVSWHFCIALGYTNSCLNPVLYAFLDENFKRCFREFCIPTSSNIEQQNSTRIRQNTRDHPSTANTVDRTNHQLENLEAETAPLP

[6] = biological target: Peroxisome proliferator-activated receptor gamma (Homo sapiens) (UniProt P37231); assay: PPARgamma (h) Eurofins-Cerep binding assay; design: ligand concentration 5 nM; conditions: filed as agonist, Compound concentration 10.0 uM
[7] = biological target: 5-hydroxytryptamine receptor 2B (Homo sapiens) (UniProt P41595); assay: 5-HT2B (h) Eurofins-Cerep binding assay; design: ligand concentration 0.2 nM; conditions: filed as agonist, Compound concentration 10.0 uM
[8] = biological target: Estrogen receptor (Homo sapiens) (UniProt P03372); assay: Estrogen ER alpha (h) Eurofins-Cerep binding assay; design: ligand concentration 0.5 nM; conditions: filed as agonist, Compound concentration 10.0 uM
[9] = biological target: RAC-beta serine/threonine-protein kinase (Homo sapiens) (UniProt P31751); conditions: Compound concentration 1000.0 nM
[10] = tested on: ALK tyrosine kinase receptor (Homo sapiens), Q9UM73 [L1196M]; conditions: Compound concentration 1000.0 nM
[11] = biological target: Ankyrin repeat and protein kinase domain-containing protein 1 (Homo sapiens) (UniProt Q8NFD2); conditions: Compound concentration 1000.0 nM
[12] = biological target: BMP-2-inducible protein kinase (Homo sapiens) (UniProt Q9NSY1); conditions: Compound concentration 1000.0 nM
[13] = biological target: Bone morphogenetic protein receptor type-1B (Homo sapiens) (UniProt O00238); conditions: Compound concentration 1000.0 nM
[14] = biological target: Cyclin-dependent kinase 11A (Homo sapiens) (UniProt Q9UQ88); conditions: Compound concentration 1000.0 nM
Chain of Cyclin-dependent kinase 11A (Homo sapiens) (Q9UQ88 whole entry): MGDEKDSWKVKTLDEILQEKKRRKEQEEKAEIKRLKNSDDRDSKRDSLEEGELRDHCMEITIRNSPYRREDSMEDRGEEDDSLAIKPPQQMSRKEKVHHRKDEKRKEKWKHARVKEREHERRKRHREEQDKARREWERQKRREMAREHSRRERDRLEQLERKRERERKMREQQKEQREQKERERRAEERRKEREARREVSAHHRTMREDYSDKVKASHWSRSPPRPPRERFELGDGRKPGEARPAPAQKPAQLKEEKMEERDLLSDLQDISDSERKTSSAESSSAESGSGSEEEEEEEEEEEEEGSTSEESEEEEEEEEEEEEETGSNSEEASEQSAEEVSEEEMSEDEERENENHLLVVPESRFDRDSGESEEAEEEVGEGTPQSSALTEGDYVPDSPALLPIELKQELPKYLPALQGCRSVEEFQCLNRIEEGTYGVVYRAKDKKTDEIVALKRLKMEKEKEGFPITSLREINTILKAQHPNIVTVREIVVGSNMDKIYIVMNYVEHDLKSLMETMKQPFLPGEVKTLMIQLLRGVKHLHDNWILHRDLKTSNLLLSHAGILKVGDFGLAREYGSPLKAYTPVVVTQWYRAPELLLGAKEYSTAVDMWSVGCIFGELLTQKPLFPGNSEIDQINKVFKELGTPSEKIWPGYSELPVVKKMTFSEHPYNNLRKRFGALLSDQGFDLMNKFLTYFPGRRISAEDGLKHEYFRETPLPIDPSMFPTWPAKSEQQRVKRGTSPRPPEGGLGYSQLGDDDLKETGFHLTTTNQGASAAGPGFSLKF

[15] = biological target: Cyclin-dependent kinase 5 (Homo sapiens) (UniProt Q00535); conditions: Compound concentration 1000.0 nM
Chain of Cyclin-dependent kinase 5 (Homo sapiens) (Q00535 whole entry, looked up): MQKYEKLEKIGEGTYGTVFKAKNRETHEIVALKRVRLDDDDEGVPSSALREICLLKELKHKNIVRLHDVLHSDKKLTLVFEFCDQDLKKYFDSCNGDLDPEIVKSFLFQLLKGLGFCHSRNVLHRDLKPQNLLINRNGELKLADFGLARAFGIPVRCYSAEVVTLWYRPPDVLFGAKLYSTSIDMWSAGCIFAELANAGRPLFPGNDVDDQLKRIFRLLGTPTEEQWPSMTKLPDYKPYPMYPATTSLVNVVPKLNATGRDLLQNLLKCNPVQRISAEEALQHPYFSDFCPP

[16] = biological target: Megakaryocyte-associated tyrosine-protein kinase (Homo sapiens) (UniProt P42679); conditions: Compound concentration 1000.0 nM
[17] = biological target: Epidermal growth factor receptor (Homo sapiens) (UniProt P00533); conditions: Compound concentration 1000.0 nM
[18] = biological target: Ephrin type-A receptor 3 (Homo sapiens) (UniProt P29320); conditions: Compound concentration 1000.0 nM
[19] = biological target: Ephrin type-B receptor 3 (Homo sapiens) (UniProt P54753); conditions: Compound concentration 1000.0 nM
Chain of Ephrin type-B receptor 3 (Homo sapiens) (P54753 whole entry): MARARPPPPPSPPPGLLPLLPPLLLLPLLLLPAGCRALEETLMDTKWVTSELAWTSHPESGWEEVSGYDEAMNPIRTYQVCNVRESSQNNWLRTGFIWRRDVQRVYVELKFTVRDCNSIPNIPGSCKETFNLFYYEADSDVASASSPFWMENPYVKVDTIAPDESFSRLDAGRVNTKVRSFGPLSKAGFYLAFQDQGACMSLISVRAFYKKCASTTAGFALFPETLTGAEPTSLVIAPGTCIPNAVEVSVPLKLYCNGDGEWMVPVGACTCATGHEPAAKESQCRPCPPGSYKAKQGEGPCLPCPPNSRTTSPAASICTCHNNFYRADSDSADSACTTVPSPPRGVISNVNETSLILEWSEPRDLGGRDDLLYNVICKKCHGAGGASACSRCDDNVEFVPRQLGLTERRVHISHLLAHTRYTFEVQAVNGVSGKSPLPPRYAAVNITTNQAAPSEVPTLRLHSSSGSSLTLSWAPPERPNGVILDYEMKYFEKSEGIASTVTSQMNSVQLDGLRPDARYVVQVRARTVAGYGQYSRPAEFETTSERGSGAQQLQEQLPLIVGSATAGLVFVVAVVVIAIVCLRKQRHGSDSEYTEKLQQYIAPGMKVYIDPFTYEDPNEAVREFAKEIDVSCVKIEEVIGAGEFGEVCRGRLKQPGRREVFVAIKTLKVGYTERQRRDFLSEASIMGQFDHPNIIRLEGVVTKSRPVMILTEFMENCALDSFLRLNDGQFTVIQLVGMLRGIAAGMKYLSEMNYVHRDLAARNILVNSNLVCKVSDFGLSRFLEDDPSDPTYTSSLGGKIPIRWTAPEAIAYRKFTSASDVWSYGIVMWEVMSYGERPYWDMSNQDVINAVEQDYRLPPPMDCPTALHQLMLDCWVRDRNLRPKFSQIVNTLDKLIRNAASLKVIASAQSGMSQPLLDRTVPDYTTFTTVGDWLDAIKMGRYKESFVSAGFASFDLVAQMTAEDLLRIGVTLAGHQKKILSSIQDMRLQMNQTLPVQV

[20] = biological target: Tyrosine-protein kinase JAK3 (Homo sapiens) (UniProt P52333); conditions: Compound concentration 1000.0 nM
[21] = tested on: Mast/stem cell growth factor receptor Kit (Homo sapiens), P10721 [V559D]; conditions: Compound concentration 1000.0 nM
[22] = biological target: Mitogen-activated protein kinase kinase kinase 13 (Homo sapiens) (UniProt O43283); conditions: Compound concentration 1000.0 nM
[23] = biological target: Mitogen-activated protein kinase kinase kinase kinase 4 (Homo sapiens) (UniProt O95819); conditions: Compound concentration 1000.0 nM
[24] = biological target: Serine/threonine-protein kinase MARK1 (Homo sapiens) (UniProt Q9P0L2); conditions: Compound concentration 1000.0 nM
[25] = biological target: Dual specificity mitogen-activated protein kinase kinase 3 (Homo sapiens) (UniProt P46734); conditions: Compound concentration 1000.0 nM
Chain of Dual specificity mitogen-activated protein kinase kinase 3 (Homo sapiens) (P46734 whole entry): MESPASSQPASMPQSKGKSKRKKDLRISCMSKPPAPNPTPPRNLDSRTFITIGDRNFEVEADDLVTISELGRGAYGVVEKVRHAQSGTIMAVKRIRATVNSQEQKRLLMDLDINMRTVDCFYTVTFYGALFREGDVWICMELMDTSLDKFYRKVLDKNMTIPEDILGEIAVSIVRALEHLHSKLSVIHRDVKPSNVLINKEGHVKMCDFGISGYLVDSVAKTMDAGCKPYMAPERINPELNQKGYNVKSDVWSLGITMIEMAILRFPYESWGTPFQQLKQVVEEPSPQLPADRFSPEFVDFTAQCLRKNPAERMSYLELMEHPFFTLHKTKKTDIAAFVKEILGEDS

[26] = biological target: Dual specificity mitogen-activated protein kinase kinase 6 (Homo sapiens) (UniProt P52564); conditions: Compound concentration 1000.0 nM
[27] = biological target: Misshapen-like kinase 1 (Homo sapiens) (UniProt Q8N4C8); conditions: Compound concentration 1000.0 nM
[28] = biological target: MAP kinase-interacting serine/threonine-protein kinase 1 (Homo sapiens) (UniProt Q9BUB5); conditions: Compound concentration 1000.0 nM
[29] = biological target: Muscle, skeletal receptor tyrosine-protein kinase (Homo sapiens) (UniProt O15146); conditions: Compound concentration 1000.0 nM
[30] = biological target: Myosin light chain kinase 2, skeletal/cardiac muscle (Homo sapiens) (UniProt Q9H1R3); conditions: Compound concentration 1000.0 nM
[31] = biological target: Myosin-IIIa (Homo sapiens) (UniProt Q8NEV4); conditions: Compound concentration 1000.0 nM
[32] = biological target: Serine/threonine-protein kinase 38-like (Homo sapiens) (UniProt Q9Y2H1); conditions: Compound concentration 1000.0 nM
[33] = biological target: Mitogen-activated protein kinase 12 (Homo sapiens) (UniProt P53778); conditions: Compound concentration 1000.0 nM
[34] = biological target: Cyclin-dependent kinase 18 (Homo sapiens) (UniProt Q07002); conditions: Compound concentration 1000.0 nM
[35] = biological target: 3-phosphoinositide-dependent protein kinase 1 (Homo sapiens) (UniProt O15530); conditions: Compound concentration 1000.0 nM
Chain of 3-phosphoinositide-dependent protein kinase 1 (Homo sapiens) (O15530 whole entry, canonical isoform): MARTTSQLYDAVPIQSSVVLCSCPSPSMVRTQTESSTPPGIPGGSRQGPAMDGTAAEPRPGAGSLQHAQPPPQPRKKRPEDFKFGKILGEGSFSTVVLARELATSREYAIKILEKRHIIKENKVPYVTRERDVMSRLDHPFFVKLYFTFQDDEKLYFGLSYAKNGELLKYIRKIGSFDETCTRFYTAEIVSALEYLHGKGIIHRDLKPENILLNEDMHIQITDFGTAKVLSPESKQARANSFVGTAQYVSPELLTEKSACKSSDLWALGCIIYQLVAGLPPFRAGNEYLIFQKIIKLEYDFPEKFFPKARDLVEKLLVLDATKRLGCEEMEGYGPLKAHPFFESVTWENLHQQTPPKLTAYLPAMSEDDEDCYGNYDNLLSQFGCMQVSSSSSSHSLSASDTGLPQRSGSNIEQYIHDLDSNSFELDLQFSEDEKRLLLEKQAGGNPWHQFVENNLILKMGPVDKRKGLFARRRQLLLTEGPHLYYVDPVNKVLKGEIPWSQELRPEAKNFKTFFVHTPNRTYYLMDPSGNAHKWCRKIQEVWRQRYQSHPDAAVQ

[36] = biological target: Phosphatidylinositol 4,5-bisphosphate 3-kinase catalytic subunit gamma isoform (Homo sapiens) (UniProt P48736); conditions: Compound concentration 1000.0 nM
[37] = biological target: cAMP-dependent protein kinase catalytic subunit alpha (Homo sapiens) (UniProt P17612); conditions: Compound concentration 1000.0 nM
[38] = biological target: cAMP-dependent protein kinase catalytic subunit PRKX (Homo sapiens) (UniProt P51817); conditions: Compound concentration 1000.0 nM
[39] = biological target: Serine/threonine-protein kinase PRP4 homolog (Homo sapiens) (UniProt Q13523); conditions: Compound concentration 1000.0 nM
Chain of Serine/threonine-protein kinase PRP4 homolog (Homo sapiens) (Q13523 whole entry): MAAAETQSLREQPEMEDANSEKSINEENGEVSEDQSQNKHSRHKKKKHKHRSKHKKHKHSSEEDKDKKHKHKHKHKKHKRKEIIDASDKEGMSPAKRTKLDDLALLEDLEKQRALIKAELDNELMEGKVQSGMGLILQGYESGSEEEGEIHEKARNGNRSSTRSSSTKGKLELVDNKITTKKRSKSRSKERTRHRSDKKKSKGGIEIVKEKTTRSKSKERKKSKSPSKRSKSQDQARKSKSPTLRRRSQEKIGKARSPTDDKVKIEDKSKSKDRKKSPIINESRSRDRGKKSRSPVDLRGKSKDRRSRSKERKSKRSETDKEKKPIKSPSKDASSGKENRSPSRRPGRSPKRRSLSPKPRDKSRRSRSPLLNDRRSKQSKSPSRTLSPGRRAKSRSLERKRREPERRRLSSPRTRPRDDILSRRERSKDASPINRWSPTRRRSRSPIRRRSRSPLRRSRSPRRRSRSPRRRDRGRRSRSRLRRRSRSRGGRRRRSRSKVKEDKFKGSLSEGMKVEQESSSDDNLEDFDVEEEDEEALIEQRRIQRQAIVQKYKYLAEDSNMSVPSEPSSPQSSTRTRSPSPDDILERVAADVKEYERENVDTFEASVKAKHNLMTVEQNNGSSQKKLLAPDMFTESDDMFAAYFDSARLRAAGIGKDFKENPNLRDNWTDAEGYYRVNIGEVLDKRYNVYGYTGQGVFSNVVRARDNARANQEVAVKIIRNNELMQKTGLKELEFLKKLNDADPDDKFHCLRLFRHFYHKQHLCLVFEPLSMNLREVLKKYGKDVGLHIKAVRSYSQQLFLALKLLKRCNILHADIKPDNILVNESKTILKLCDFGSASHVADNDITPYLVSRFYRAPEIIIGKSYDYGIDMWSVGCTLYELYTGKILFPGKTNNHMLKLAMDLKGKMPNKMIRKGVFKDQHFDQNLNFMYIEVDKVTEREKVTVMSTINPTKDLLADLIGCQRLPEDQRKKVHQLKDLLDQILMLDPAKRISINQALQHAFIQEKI

[40] = biological target: Ribosomal protein S6 kinase alpha-5 (Homo sapiens) (UniProt O75582); conditions: Compound concentration 1000.0 nM
[41] = biological target: Ribosomal protein S6 kinase alpha-6 (Homo sapiens) (UniProt Q9UK32); conditions: Compound concentration 1000.0 nM
[42] = biological target: NUAK family SNF1-like kinase 2 (Homo sapiens) (UniProt Q9H093); conditions: Compound concentration 1000.0 nM
[43] = biological target: Serine/threonine-protein kinase ULK3 (Homo sapiens) (UniProt Q6PHR2); conditions: Compound concentration 1000.0 nM
[44] = biological target: Wee1-like protein kinase 2 (Homo sapiens) (UniProt P0C1S8); conditions: Compound concentration 1000.0 nM
[45] = biological target: Serine/threonine-protein kinase 32C (Homo sapiens) (UniProt Q86UX6); conditions: Compound concentration 1000.0 nM

What does the source list for `O=C(NS(=O)(=O)c1ccc(NCC2CCOCC2)c([N+](=O)[O-])c1)c1ccc(N2CCN(Cc3ccc(C(F)(F)F)cc3-c3ccc(Cl)cc3)CC2)cc1Oc1cnc2[nH]ccc2c1` [A-1210227]?
% Inhibition of Control Values (Mean n=2) [1]: 19.7%; % Inhibition of Control Specific Binding (Mean n=2) [2]: -57.7%; % Inhibition of Control Specific Binding (Mean n=2) [3]: -42%; % Inhibition of Control Specific Binding (Mean n=2) [4]: -13%; % Inhibition of Control Specific Binding (Mean n=2) [5]: 2.8%; % Inhibition of Control Specific Binding (Mean n=2) [6]: 9.3%; % Inhibition of Control Specific Binding (Mean n=2) [7]: -51.4%; % Inhibition of Control Specific Binding (Mean n=2) [8]: -7.6%; residual activity [9]: 100%; residual activity [10]: 100%; residual activity [11]: 77%; residual activity [12]: 94%; residual activity [13]: 89%; residual activity [14]: 100%; residual activity [15]: 81%; residual activity [16]: 100%; residual activity [17]: 84%; residual activity [18]: 100%; residual activity [19]: 100%; residual activity [20]: 85%; residual activity [21]: 100%; residual activity [22]: 91%; residual activity [23]: 95%; residual activity [24]: 81%; residual activity [25]: 80%; residual activity [26]: 97%; residual activity [27]: 84%; residual activity [28]: 99%; residual activity [29]: 98%; residual activity [30]: 77%; residual activity [31]: 85%; residual activity [32]: 93%; residual activity [33]: 50%; residual activity [34]: 100%; residual activity [35]: 70%; residual activity [36]: 86%; residual activity [37]: 76%; residual activity [38]: 100%; residual activity [39]: 100%; residual activity [40]: 95%; residual activity [41]: 100%; residual activity [42]: 88%; residual activity [43]: 85%; residual activity [44]: 100%; residual activity [45]: 55%

With `CO[C@H]1CC[C@H](CNc2ccc(S(=O)(=O)NC(=O)c3ccc(N4CCN(CC5=C(c6ccc(Cl)cc6)CC(C)(C)CC5)CC4)cc3Oc3cnc4[nH]ccc4c3)cc2[N+](=O)[O-])CC1` [A-1211212] as the molecule, how does the % Inhibition of Control Values (Mean n=2) [1] read?
Its % Inhibition of Control Values (Mean n=2) is 5.4%.

What about the % Inhibition of Control Specific Binding (Mean n=2) [2] of the same molecule?
The % Inhibition of Control Specific Binding (Mean n=2) was -8%.

And the % Inhibition of Control Specific Binding (Mean n=2) [3]?
The % Inhibition of Control Specific Binding (Mean n=2) was -20.3%.

And the % Inhibition of Control Specific Binding (Mean n=2) [4]?
The % Inhibition of Control Specific Binding (Mean n=2) was -20.5%.

What about the % Inhibition of Control Specific Binding (Mean n=2) [5] of the same molecule?
Its % Inhibition of Control Specific Binding (Mean n=2) is 12.9%.

What about the % Inhibition of Control Specific Binding (Mean n=2) [6] of the same molecule?
Its % Inhibition of Control Specific Binding (Mean n=2) is 28.5%.

And the % Inhibition of Control Specific Binding (Mean n=2) [7]?
Its % Inhibition of Control Specific Binding (Mean n=2) is -142%.

What about the % Inhibition of Control Specific Binding [8] of the same molecule?
Its % Inhibition of Control Specific Binding is 1.9%.

What about the residual activity [9] of the same molecule?
The residual activity was 80%.

And the residual activity [10]?
The residual activity was 100%.

And the residual activity [11]?
Its residual activity is 81%.

What about the residual activity [12] of the same molecule?
The residual activity was 94%.

What about the residual activity [13] of the same molecule?
The residual activity was 92%.

And the residual activity [14]?
Its residual activity is 95%.

And the residual activity [15]?
Its residual activity is 82%.

And the residual activity [16]?
The residual activity was 89%.

And the residual activity [17]?
The residual activity was 62%.

What about the residual activity [18] of the same molecule?
The residual activity was 90%.

And the residual activity [19]?
Its residual activity is 94%.

And the residual activity [20]?
Its residual activity is 84%.

What about the residual activity [21] of the same molecule?
The residual activity was 99%.

And the residual activity [22]?
Its residual activity is 89%.

What about the residual activity [23] of the same molecule?
The residual activity was 100%.

What about the residual activity [24] of the same molecule?
The residual activity was 74%.

And the residual activity [25]?
The residual activity was 92%.

What about the residual activity [26] of the same molecule?
The residual activity was 84%.

And the residual activity [27]?
Its residual activity is 88%.

What about the residual activity [28] of the same molecule?
Its residual activity is 90%.

And the residual activity [29]?
The residual activity was 100%.

What about the residual activity [30] of the same molecule?
The residual activity was 66%.

What about the residual activity [31] of the same molecule?
The residual activity was 82%.

And the residual activity [32]?
The residual activity was 94%.

What about the residual activity [33] of the same molecule?
Its residual activity is 47%.

What about the residual activity [34] of the same molecule?
Its residual activity is 100%.

What about the residual activity [35] of the same molecule?
The residual activity was 72%.

And the residual activity [36]?
The residual activity was 86%.

What about the residual activity [37] of the same molecule?
The residual activity was 78%.

And the residual activity [38]?
The residual activity was 100%.

What about the residual activity [39] of the same molecule?
Its residual activity is 100%.

What about the residual activity [40] of the same molecule?
Its residual activity is 90%.

And the residual activity [41]?
The residual activity was 67%.

What about the residual activity [42] of the same molecule?
The residual activity was 95%.

What about the residual activity [43] of the same molecule?
The residual activity was 80%.

What about the residual activity [44] of the same molecule?
Its residual activity is 81%.

What about the residual activity [45] of the same molecule?
The residual activity was 54%.
